Results: PMC9014415, “Repositioning of a Diaminothiazole Series Confirmed to Target the Cyclin-Dependent Kinase CRK12 for Use in the Treatment of African Animal Trypanosomiasis” (Journal of Medicinal Chemistry, 2022)

Key:
[1] = Mouse liver microsome stability; format: in vitro ADME; settings: intrinsic clearance
Method: solubility method,5 the long shaking times appear to give solubility values that more closely reflect those made from solid samples (unpublished in-house data).
2.2 Microsomal stability studies
(a) Mouse liver microsome stability. These methods have been previously reported.6
(b) Bovine liver microsome stability. Test compounds (0.5 µM) were incubated with 0.5 mg/mL bovine liver microsomes (Xenotech LLC TM) in 50 mM potassium phosphate buffer, pH7.4 and the reaction initiated upon addition of excess NADPH (8 mg/mL in 50 mM potassium phosphate buffer, pH7.4).
Aliquots (50 µL) of the incubation mixture were taken at time zero, 3, 6, 9, 15 and 30 min then mixed with acetonitrile (100 µL) to stop the reaction. An internal standard was added to all samples, prior to centrifugation (10 min, 1,665 g, RT) to sediment precipitated protein. Reaction plates were then sealed prior to UPLCMSMS analysis using a Quattro Premier XE (Waters corporation, USA).
XLfit (IDBS, UK) was used to calculate the exponential decay and consequently the rate constant (k) from the ratio of peak area of test compound to internal standard at each timepoint. The rate of intrinsic clearance (CLi) of each test compound was then calculated using the following […]
CLi(mL/min/g liver) = k x V x microsomal protein yield […]

[2] = Estimated EC99 used for PK/PD (parasite not stated); settings: free blood level threshold
Text: Given promising in vivo efficacy data in mice (Table 1), compound 1 was progressed into cattle pharmacokinetic studies, dosing both IV and IM (Table 2, Figure S2, and Table S4). […] This low bioavailability was likely a consequence of poor compound release from the injection site following IM administration in cattle due to the low solubility of compound 1, probably leading to compound accumulation and precipitation at the injection site.

[3] = tested on: bloodstream T. brucei resistant lines R1-R3; test: Sensitivity of compound 2-resistant T. brucei lines compared to wild-type; format: cell-based, Trypanosoma brucei
Method: To gain further insight into the molecular target(s) of this series, resistance was generated against compound 2 in a drug-sensitive clonal line of bloodstream T. brucei. Trypanosomes were cultured in the continuous presence of compound 2 for a total of 122 days. […] Following drug selection, resistant parasites were cloned by limiting dilution. The relative sensitivities of these cloned cell lines were established and compared to that of wild-type parasites. Resistant lines R1 and R3 were 10-fold resistant, while R2 was 90-fold resistant to compound 2 (Figure 4A). […] In addition, all three clones had lost a significant part of chromosome 10 and gained additional copies of a region of chromosome 8. All three resistant lines carried a mutation in Tb927.4.4590, a gene encoding a non-essential putative kinase and in Tb927.11.10300, encoding a hypothetical protein. Of particular note, all three clones (R1–3) shared a non-synonymous substitution (Gly492Ala) in Tb927.11.12310, the gene encoding CRK12. In addition, R2 harbored a second non-synonymous substitution (Leu482Phe) in CRK12 (Table S10). […]
in cattle). Blood from the donor animals, diluted with phosphate buffered glucose was used to infect recipient animals IV via the jugular vein. Infection was with approximately 100,000 fresh viable parasites. The compounds were given IM. Each injection was up to 10 mL and given in neck in the following order: left anterior third, right anterior third, left posterior third and right posterior third.
Animals over 240 kg required a fifth injection site for the IVP, and this was given in the left or right hind leg. Cattle were randomised to treatments. Parasitaemia was monitored 3 times per calendar week, though collection of blood and assessment of clinical symptoms. Blood samples were also […]
treatment). Cattle were also monitored for PCV, clinical symptoms, body weight and temperature […]
4. Mode of action studies
4.1 Resistant line generation […]
Sequencing reads (100 bp) were aligned to the Trypanosoma brucei TREU927 genome (v39; tritrypDB) using Bowtie210 and Samtools11 software. […]

CC(C)CS(=O)(=O)N[C@H]1CC[C@H](Nc2nc(N)c(C(=O)c3c(F)cccc3F)s2)CC1 [Compound 1, N-((trans)-4-((4-Amino-5-(2,6-difluorobenzoyl)thiazol-2-yl)amino)cyclohexyl)-2-methylpropane-1-sulfonamide]
Mouse Microsome Cli [1]: 11 mL/min/g | estimated EC99 [2]: 1.6 ng/mL

CC(C)CS(=O)(=O)N[C@H]1CC[C@H](Nc2nc(N)c(C(=O)c3c(F)cc(CN(C)C)cc3F)s2)CC1 [Compound 2, N-(trans)-[4-[[4-Amino-5-[4-(dimethylaminomethyl)-2,6-difluoro-benzoyl]thiazol-2-yl]amino]cyclohexyl]-2-methyl-propane-1-sulfonamide]
Resistance compared to wild-type ([3]; resistant line R1): 10 fold | Resistance compared to wild-type ([3]; resistant line R2): 90 fold | Resistance compared to wild-type ([3]; resistant line R3): 10 fold
